Laboratory results published in paper PMC3436870, “The Conserved Residue Arg46 in the N-Terminal Heptad Repeat Domain of HIV-1 gp41 Is Critical for Viral Fusion and Entry” (PLoS ONE, 2012).
Ends that are not written are not given here.

What was measured:
HIV-1 IIIB = assay: Inhibition of HIV-1IIIB infection of MT-2 cells, p24 ELISA; assay type: cell-based; conditions: HIV-1 IIIB at 100 TCID50, peptide overnight, p24 antigen ELISA on fourth day post-infection
Protocol: The inhibitory activity of the NHR- and CHR-peptides on HIV-1IIIB infection was determined as previously described. In brief, 1×10^4 MT-2 cells were infected with HIV-1 IIIB at 100 TCID50 (50% tissue culture infective dose) in 200 µl culture medium in the presence or absence of the test peptide overnight. Then the culture supernatants were removed, and fresh media were added. On the fourth day post-infection, 100 µl of culture supernatants were collected from each well, mixed with equal volumes of 5% Triton X-100 and assayed for p24 antigen by an in-house ELISA as described before.

[1] = tested on: HIV-1IIIB-mediated cell-cell fusion (H9/HIV-1IIIB-infected cells with MT-2 cells); assay type: cell-based; conditions: calcein-AM-labeled H9/HIV-1IIIB-infected cells with MT-2 cells (ratio 1:5), 37°C, 2 h; fused cells counted under fluorescence microscope; read-out: IC50 (nM) for inhibition of HIV-1IIIB-mediated cell-cell fusion
Excerpt: To detect HIV-1 mediated cell-cell fusion, we performed a dye transfer assay as previously described. […] Then under an inverted fluorescence microscope (Zeiss, Germany) with an eyepiece micrometer disc, we calculated the fused and unfused calcein-labeled HIV-1-infected cells. Previously developed methods were applied to calculate the percent inhibition of cell-cell fusion and the IC50 values.

## WMEWDREINNYTSLIHSLIEASQNQQEKNEQELL [C34 E137A]
HIV-1 IIIB
  IC50: 12.2 ± 1.28 nM
[1]
  IC50: 4.681 ± 0.029 nM

## WMEWDREINNYTSLIHSLIERSQNQQEKNEQELL [C34 E137R]
HIV-1 IIIB
  IC50: 22.1 ± 1.8 nM
[1]
  IC50: 5.32 ± 1.29 nM
